Data: patent publication US8383637B2, “2-amino-quinazoline derivatives useful as inhibitors of β-secretase (BACE)” (Jansssen Pharmaceutica N.V., priority 2004, dated 2013)
Several values for one entry are separate records, joined by “and”; a condition that tells them apart may be missing. Equal values may be shown once.

Target: T1, β-secretase(BACE) (Homo sapiens, UniProt P56817)
T1 construct: purchased Panvera
Assay: BACE FS1% Inhibition Assay
Assay type: biochemical
Details: FS1 substrate; for % Inhibition (FS) 10 μM: 10 μM test compound
Method in brief: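 Percent inhibition at each tested concentration, referenced to enzyme-free blank and vehicle-only positive control. Reaction: compound and BACE (4 μg/mL working stock) mixed 20 min at room temperature before FS1 substrate (300 μg/mL working stock), then 1 h at room temperature.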

T1 sequence (P56817 46-501): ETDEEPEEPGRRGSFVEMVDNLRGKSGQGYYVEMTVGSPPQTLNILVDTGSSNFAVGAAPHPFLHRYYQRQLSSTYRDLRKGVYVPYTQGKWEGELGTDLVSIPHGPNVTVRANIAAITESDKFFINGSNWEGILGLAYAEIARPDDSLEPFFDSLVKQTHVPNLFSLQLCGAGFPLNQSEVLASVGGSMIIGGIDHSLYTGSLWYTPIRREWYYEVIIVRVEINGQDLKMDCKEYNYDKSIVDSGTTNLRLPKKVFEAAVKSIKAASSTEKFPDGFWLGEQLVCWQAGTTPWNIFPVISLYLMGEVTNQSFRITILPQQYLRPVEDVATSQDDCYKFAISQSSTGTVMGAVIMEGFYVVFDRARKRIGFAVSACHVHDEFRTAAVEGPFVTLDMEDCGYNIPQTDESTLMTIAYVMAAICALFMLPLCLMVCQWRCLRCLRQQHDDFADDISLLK

| % Inhibition (FS) 0.3 μM (0.3 μM test compound) [%] | % Inhibition (FS) 1 μM (1 μM test compound) [%] | % Inhibition (FS) 3 μM (3 μM test compound) [%] | Structure (SMILES) | also measured |
| --- | --- | --- | --- | --- |
| <30 | <30 | 27 | CN(C(=O)c1cccc(CN2Cc3cc(Sc4cccc5ccccc45)ccc3N=C2N)c1)C1CCCCC1 [Compound 414] | – |
| <30 | <30 | 32 | NC1=Nc2ccc(Oc3ccccc3)cc2CN1Cc1cccc(C(=O)N2CCCC3CCCCC32)c1 (stereo not shown) [Compound 212] | – |
| <30 | <30 | 81 | CN(C)c1cccc(Oc2ccc3c(c2)CN(Cc2cccc(C(=O)N(C)C4CCCCC4)c2)C(N)=N3)c1 [Compound 479] | – |
| <30 | <30 | <30 | COc1cccc(C)c1Oc1ccc2c(c1)CN(Cc1cccc(C(=O)N(C)C3CCCCC3)c1)C(N)=N2 [Compound 468] | – |
| <30 | <30 | <30 | Cc1cccc(C)c1Oc1ccc2c(c1)CN(Cc1cccc(C(=O)N(C)C3CCCCC3)c1)C(N)=N2 [Compound 475] | – |
| 32 | <30 | 51 | NC1=Nc2ccc(-c3ccccc3-c3ccccc3)cc2CN1CCNC(=O)C1CCCCC1 [Compound 544] | – |
| <30 | <30 | <30 | CN(C)Cc1ccccc1-c1ccc2c(c1)CN(Cc1cccc(C(=O)N(C)C3CCCCC3)c1)C(N)=N2 [Compound 172] | – |
| <30 | <30 | 38 | C=CCc1cccc(C)c1Oc1ccc2c(c1)CN(Cc1cccc(C(=O)N(C)C3CCCCC3)c1)C(N)=N2 [Compound 480] | – |
| <30 | <30 | 53 | CSc1ccc(Sc2ccc3c(c2)CN(Cc2cccc(C(=O)N(C)C4CCCCC4)c2)C(N)=N3)cc1 [Compound 413] | – |
| <30 | <30 | <30 | CN1CCCC1CCNC(=O)c1cccc(CN2Cc3cc(Oc4ccccc4)ccc3N=C2N)c1 (stereo not shown) [Compound 222] | – |
| 69 | 107 | 118 | CCC(c1cccc(C(=O)N(C)C2CCCCC2)c1)N1Cc2cc(-c3ccccc3OC)ccc2N=C1N (racemic) [Compound 395] | – |
| <30 | 34 | <30 | CN(C(=O)c1cccc(CN2Cc3cc(C=Cc4ccccc4)ccc3N=C2N)c1)C1CCCCC1 [Compound 266] | – |
| <30 | <30 | 33 | CN(C(=O)c1cccc(CN2Cc3cc(OC4CCCC4)ccc3N=C2N)c1)C1CCCCC1 [Compound 520] | – |
| −33 | <30 | <30 | CN(C(=O)c1cccc(CN2Cc3cc(-c4ccccc4-c4ccccc4)ccc3N=C2N)c1)C1CCCCC1 [Compound 321] | – |
| <30 | <30 | 82 | CN(C(=O)CC(C1CCCCC1)N1Cc2cc(Oc3ccccc3)ccc2N=C1N)C1CCCCC1 (stereo not shown) [Compound 199] | – |
| – | – | 54 | NC1=Nc2ccc(Oc3ccccc3)cc2CN1C(c1ccccc1)c1cccc(C(=O)N(C2CCCCC2)C2CCCCC2)c1 (stereo not shown) [Compound 132] | % Inhibition (FS) 10 μM: 118% |
| <30 | <30 | 56 | NC1=Nc2ccc(-c3ccc(Cl)cc3)cc2CN1CCNC(=O)C1CCCCC1 [Compound 626] | – |

Continued, compound first:

| Structure (SMILES) | % Inhibition (FS) 0.3 μM (0.3 μM test compound) [%] | % Inhibition (FS) 1 μM (1 μM test compound) [%] | % Inhibition (FS) 3 μM (3 μM test compound) [%] | also measured |
| --- | --- | --- | --- | --- |
| NC1=Nc2ccc(Oc3c(F)cccc3F)cc2CN1CCC(=O)NC1C2CC3CC(C2)CC1C3 (stereo not shown) [Compound 529] | <30 | <30 | 66 | – |
| COC1CCCC(C(=O)NCCN2Cc3cc(-c4ccccc4)ccc3N=C2N)C1 (stereo not shown) [Compound 703] | – | – | – | % Inhibition (FS) (0.3 μM test compound): <30%; % Inhibition (FS) (1 μM test compound): 46%; % Inhibition (FS) (3 μM test compound): 83% |
| COc1ccccc1-c1ccc2c(c1)CN(CCNC(=O)C1CCN(C(C)=O)CC1)C(N)=N2 [Compound 491] | <30 | <30 | – | % Inhibition (FS) 3 μM (3 μM test compound, 3 µM): 44% and <30% |
| CC(C)(C)C(=O)NCCN1Cc2cc(-c3ccccc3Cl)ccc2N=C1N [Compound 653] | 46 | 82 | 101 | – |
| COC(=O)C(COCc1ccccc1)N(C)C(=O)CCC(C1CCCCC1)N1Cc2cc(Oc3ccccc3)ccc2N=C1N (stereo not shown) [Compound 780] | – | – | – | % Inhibition (FS) (0.3 μM test compound): 69%; % Inhibition (FS) (1 μM test compound): 97%; % Inhibition (FS) (3 μM test compound): 109% |
| CCCC=Cc1ccc2c(c1)CN(CCNC(=O)Cc1ccccc1)C(N)=N2 [Compound 596] | <30 | <30 | <30 | – |
| CCCC(=O)NCCN1Cc2cc(-c3cnc4ccccc4c3)ccc2N=C1N [Compound 673] | – | – | – | % Inhibition (FS) (0.3 μM test compound): 34%; % Inhibition (FS) (1 μM test compound): <30%; % Inhibition (FS) (3 μM test compound): <30% |
| CN(C(=O)CCC(C1CCCCC1)N1Cc2cc(Oc3ccccc3)ccc2N=C1N)C1CCC(C#N)CC1 (stereo not shown) [Compound 769] | – | – | – | % Inhibition (FS) (0.3 μM test compound): <30%; % Inhibition (FS) (1 μM test compound): 61%; % Inhibition (FS) (3 μM test compound): 107% |
| CCCCC(CC)C(=O)NCCN1Cc2cc(-c3ccccc3Cl)ccc2N=C1N (stereo not shown) [Compound 655] | 45 | 79 | 104 | – |
| COc1ccccc1-c1ccc2c(c1)CN(CCNC(=O)CN)C(N)=N2 [Compound 490] | <30 | <30 | <30 | – |
| Cc1cc(C(=O)NCCN2Cc3cc(-c4cccc(CO)c4)ccc3N=C2N)c(C)o1 [Compound 589] | <30 | <30 | <30 | – |
| NC1=Nc2ccc(Oc3ccccc3)cc2CN1CCCCNC(=O)C1CCCC1 [Compound 116] | – | – | 39 | % Inhibition (FS) 10 μM: 81% |
| CC(CC(=O)NCCN1Cc2cc(-c3ccccc3F)ccc2N=C1N)C(F)(F)F (stereo not shown) [Compound 681] | – | – | – | % Inhibition (FS) (0.3 μM test compound): 67%; % Inhibition (FS) (1 μM test compound): 100%; % Inhibition (FS) (3 μM test compound): 103% |
| CC(C)(C)C(=O)NCCN1Cc2cc(-c3ccccc3F)ccc2N=C1N [Compound 646] | 52 | 72 | 97 | – |
| CCOC(=O)C1CCC(N(C)C(=O)CCC(C2CCCCC2)N2Cc3cc(Oc4ccccc4)ccc3N=C2N)CC1 (stereo not shown) [Compound 737] | – | – | – | % Inhibition (FS) (0.3 μM test compound, 0.3 µM): 22%; % Inhibition (FS) (1 μM test compound, 1 µM): 34%; % Inhibition (FS) (3 μM test compound, 3 µM): 97% |
| CCCC=Cc1ccc2c(c1)CN(CCNC(=O)c1ccc(NC(C)=O)cc1)C(N)=N2 [Compound 592] | <30 | <30 | <30 | – |
| NC1=Nc2ccc(C3=CCCC3)cc2CN1CCNC(=O)C1CCC(C(F)(F)F)CC1 (stereo not shown) [Compound 707] | – | – | – | % Inhibition (FS) (0.3 μM test compound): <30%; % Inhibition (FS) (1 μM test compound): <30%; % Inhibition (FS) (3 μM test compound): <30% |
| CCCC(CNC(=O)C12CC3CC(CC(C3)C1)C2)N1Cc2cc(Oc3ccccc3)ccc2N=C1N (stereo not shown) [Compound 602] | – | – | – | % Inhibition (FS) 0.3 μM (0.3 μM test compound, 0.3 µM): 78%; % Inhibition (FS) 1 μM (1 μM test compound, 1 µM): 113%; % Inhibition (FS) 3 μM (3 μM test compound, 3 µM): 121% |
| CN(Cc1csc(-c2ccccc2)n1)C(=O)CC[C@@H](C1CCCCC1)N1Cc2cc(-c3ccccc3F)ccc2N=C1N [Compound 722] | – | – | – | % Inhibition (FS) (0.3 μM test compound): 35%; % Inhibition (FS) (1 μM test compound): 35%; % Inhibition (FS) (3 μM test compound): 78% |
| CC(C)CCOc1ccc2c(c1)CN(Cc1cccc(C(=O)N(C)C3CCCCC3)c1)C(N)=N2 [Compound 517, 3-[2-Amino-6-(3-methyl-butoxy)-4H-quinazolin-3-ylmethyl]-N-cyclohexyl-N-methyl-benzamide] | – | – | – | inhibition at 0.3 µM (0.3 μM test compound, read-out: % Inhibition (FS) 0.3 μM): < 30%; inhibition at 1 µM (1 μM test compound, read-out: % Inhibition (FS) 1 μM): < 30%; inhibition at 3 µM (3 μM test compound, read-out: % Inhibition (FS) 3 μM): 40% |
| CN(C(=O)CCC(C)(C)N1Cc2cc(Oc3ccccc3)ccc2N=C1N)C1CCCCC1 [Compound 738] | – | – | – | % Inhibition (FS) (0.3 μM test compound): 14%; % Inhibition (FS) (1 μM test compound): 28%; % Inhibition (FS) (3 μM test compound): 61% |
| NC1=Nc2ccc(-c3cncnc3)cc2CN1CCNC(=O)C1CCCCC1 [Compound 575] | <30 | <30 | <30 | – |
| Cc1ccccc1-c1ccc2c(c1)CN(CCNC(=O)C1CCC1)C(N)=N2 [Compound 656] | 56 | 87 | 104 | – |
| NC1=Nc2ccc(Oc3ccccc3)cc2CN1CC(NC(=O)C1CCCCC1)C1CCCCC1 (stereo not shown) [Compound 637] | <30 | <30 | 73 | – |
| NC1=Nc2ccc(-c3ccccc3Cl)cc2CN1CCNC(=O)CCC(F)(F)F [Compound 682] | – | – | – | % Inhibition (FS) (0.3 μM test compound): 39%; % Inhibition (FS) (1 μM test compound): 77%; % Inhibition (FS) (3 μM test compound): 97% |
| COc1ccccc1-c1ccc2c(c1)CN(CCNC(=O)CCCN)C(N)=N2 [Compound 494] | <30 | <30 | <30 | – |
| COc1ccccc1-c1ccc2c(c1)CN(CCNC(=O)C1CCC(C(F)(F)F)CC1)C(N)=N2 (stereo not shown) [Compound 698] | – | – | – | % Inhibition (FS) (0.3 μM test compound): <30%; % Inhibition (FS) (1 μM test compound): <30%; % Inhibition (FS) (3 μM test compound): 64% |
| CN(C(=O)CCC(C1CCCCC1)N1Cc2cc(Oc3ccccc3)ccc2N=C1N)C1CCC(C(=O)OCc2ccccc2)CC1 (stereo not shown) [Compound 760] | – | – | – | % Inhibition (FS) (0.3 μM test compound): <30%; % Inhibition (FS) (1 μM test compound): 44%; % Inhibition (FS) (3 μM test compound): 89% |
